The values that follow come from patent US12172989B2, “Histone acetyltransferase (HAT) inhibitor and use thereof” (SHANGHAI INSTITUTE OF MATERIA MEDICA, CHINESE ACADEMY OF …, priority 2018, dated 2024).

A value given as a limit tells only on which side of the number the result lay.

One may read the IC50 as the midpoint of a concentration-inhibition curve.

Test [1] has as its system Human castration resistant prostate cancer cell line 22Rv1. In words: Cell growth inhibition experiment (CellTiter-Glo), 22Rv1. The format is cell-based. The conditions noted are these: Homo sapiens, 120 h, 22Rv1 cells treated with the compound for 5 days. Here is the method:
Human castration resistant prostate cancer cell line 22Rv1 and LNCaP clone FGC (22Rv1 cell line was from ATCC, CRL-2505, LNCaP clone FGC cell line was purchased from Cell Bank of the Chinese Academy of Sciences) were cultured with RPMI 1640 medium (Gibco, available from Life Technologies Corporation, 22400-089) containing 10% fetal bovine serum (Gibco, available from Life Technologies, 10099-141) and 1% antibiotics (penicillin and streptomycin, available from Life Technologies Corporation, 10378016) in a CO2 cell incubator (37° C., 5% CO2). In the cell growth inhibition experiment, 22Rv1 and LNCaP clone FGC cells in exponential growth phase were seeded on a 96-well plate (purchased from Corning Company, 3599) with a volume of 150 μL/well and a cell density of 1,500 cells/well. After seeded, the plate was placed in a CO2 incubator to incubate overnight to allow the cells to adhere. On the next day, 50 μL of a compound at different concentrations diluted in 3-fold gradient or DMSO were added in a 96-well plate containing the cells. The final concentration of the compound ranges from 0.3 to 10000 nM, and the final concentration of DMSO is 0.05% as control group. The cells were treated by the compound for 5 days. Cell viability was measured using CellTiter-Glo reagent (purchased from Promega, G7572): the cell treated with the compound for 5 days was added with CellTiter-Glo reagent at 40 μL/well, incubated at room temperature for 10 min, transferred to a white 96-well plate (OptiPlate-96, purchased from PerkinElmer, 605299) by 70 μL. Subsequently, the luminescence signal was detected using a multifunctional microplate reader EnVision (purchased from PerkinElmer) at a wavelength of 400-700 nm. The data was analyzed by using GraphPad Prism 5.0 software to obtain IC50.

The target in test [2] is T1, histone acetyltransferase p300 (Homo sapiens, UniProt Q09472).
T1 construct: purchased BPS Corporation 50071
T1 sequence (Q09472 1284-1673 limits assumed): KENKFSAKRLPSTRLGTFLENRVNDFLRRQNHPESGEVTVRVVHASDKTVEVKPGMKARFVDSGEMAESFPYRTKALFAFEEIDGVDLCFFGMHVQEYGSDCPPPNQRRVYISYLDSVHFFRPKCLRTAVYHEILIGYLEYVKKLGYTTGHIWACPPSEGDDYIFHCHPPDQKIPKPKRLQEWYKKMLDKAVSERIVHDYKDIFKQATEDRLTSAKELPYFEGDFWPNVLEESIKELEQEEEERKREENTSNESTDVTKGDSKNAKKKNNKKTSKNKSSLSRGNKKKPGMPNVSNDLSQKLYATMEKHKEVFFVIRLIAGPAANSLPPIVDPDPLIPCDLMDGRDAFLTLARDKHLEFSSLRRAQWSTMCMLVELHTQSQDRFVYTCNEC
In words: Histone acetyltransferase (p300) activity assay (radioisotope, [3H]-Ac-CoA). The format is biochemical. The following applies: p300 0.05 nM; histone peptide 600 nM, [3H]-Ac-CoA 250 nM; 60 min at room temperature; read-out: Inhibition rate IC50. The procedure:
The reaction was finally terminated with Ac-CoA (Sigma, Cat. No. A2056) without isotope labeling. If the activity of the acetyltransferase p300 was inhibited, the isotope signal cannot be detected on the substrate polypeptide. Therefore, the inhibitory activity of the compound against the acetyltransferase p300 was evaluated.
In the enzyme reaction system, 200 nL of a diluted compound (100% DMSO) was first transferred to a test plate using Echo, where the final concentration of the compound in the enzyme reaction system ranges from 0.25 to 5000 nM. Then 10 μL/well of p300 protein (final concentration of 0.05 nM) was transferred therein, and incubated with the compound for 15 min at room temperature. Then 10 μL/well of a substrate mixture (final concentrations of histone peptide and [^3H]—Ac-CoA were 600 nM and 250 nM, respectively) was added to start the enzyme-catalyzed reaction, and incubated at room temperature for 60 min. Then 10 µL/well of a 250 μM cold Ac-CoA solution was added to stop the reaction. Finally 25 μL/well of the reaction solution was transferred to a 384-well Flashplate (Perkin Elmer, Cat. No. SMP410A001PK), and incubated at room temperature for 1 h. The resultant was washed with double distilled water+0.1% Tween-20 three times. The signal value was read by using Microbeta. The data was analyzed by using GraphPad Prism 5.0 software to obtain IC50.

The subject of test [3] is human mantle cell lymphoma (MCL) cell line MAVER-1. The test is described as follows: Cell growth inhibition experiment (CellTiter-Glo), MAVER-1. It is filed as cell-based. The following applies: Homo sapiens, Maver1, 120 h, MAVER-1 cells treated with the compound for 5 days. The procedure:
The human mantle cell lymphoma (MCL) cell line MAVER-1 (from ATCC, CRL-3008) was cultured with RPMI 1640 medium (Gibco, available from Life Technologies Corporation, 22400-089) containing […] (Gibco, available from Life Technologies, 10099-141) and 1% antibiotics (penicillin and streptomycin, available from Life Technologies Corporation, 10378016) in a CO2 cell incubator (37° C., 5% CO2). In the cell growth inhibition experiment, MAVER-1 cells in exponential growth phase were seeded on a 96-well plate (purchased from Corning Company, 3599) in a volume of 100 μL/well and a cell density of 1*10E5 cells/well. After seeded, the plate was placed in a CO2 incubator to culture for 1 h. 100 μL of a compound at different concentrations diluted in 3-fold gradient or DMSO were added in a 96-well plate containing the cells. The final concentration of the compound ranges from 0.3 to 10000 nM, and the final concentration of DMSO is 0.05% as control group. The cells were treated with the compound for 5 days. Cell viability was measured using CellTiter-Glo reagent (purchased from Promega, G7572): the cells treated with the compound for 5 days was added with CellTiter-Glo reagent at 20 μL/well, incubated at room temperature for 10 min, transferred to a white 96-well plate (OptiPlate-96, purchased from PerkinElmer, 605299) by 80 μL. Subsequently, the luminescence signal was detected by using a multifunctional microplate reader EnVision (purchased from PerkinElmer) at a wavelength of 400-700 nm. The data was analyzed by using GraphPad Prism 5.0 software to obtain IC50.

Take `NC1(C(=O)Nc2ccc3c(c2)CC[C@]32OC(=O)N(CC(=O)N3Cc4ccc(F)cc4CC[C@H]3C3CC3)C2=O)CC1` [SYY-B035-1]: the IC50 in test [1] is less than 300 nM; in test [2] it was less than 5 nM. Regarding `NC1(C(=O)Nc2ccc3c(c2)CC[C@@]32OC(=O)N(CC(=O)N3Cc4ccc(F)cc4CC[C@H]3C3CC3)C2=O)CC1` [SYY-B035-2], the IC50 is less than 300 nM in test [1] and less than 5 nM in test [2]. For the compound `Cn1cc(-c2ccc3c(c2)CCC32NC(=O)N(CC(=O)N3Cc4ccc(F)cc4CC[C@H]3C3CC3)C2=O)cn1` (stereo partly drawn) [SYY-B043], the values for the IC50 in test [1] and in test [2] were less than 50 nM and less than 5 nM, respectively. The matching figures for `CNC(=O)Cn1cc(-c2ccc3c(c2)CCC32NC(=O)N(CC(=O)N3Cc4ccc(F)cc4CC[C@H]3C3CC3)C2=O)cn1` (stereo partly drawn) [SYY-B045]: less than 100 nM and less than 5 nM. Consider `CNC(=O)Nc1ccc2c(c1)CC[C@@]21OC(=O)N(CC(=O)N2Cc3cc(F)ccc3OC[C@H]2C(F)(F)F)C1=O` [SYY-B057-2], for which the results for the IC50 in test [3], in test [1] and in test [2] were 65 nM, 10.5 nM and 2.4 nM, respectively.

On to `CNC(=O)Nc1ccc2c(c1)OCCC21NC(=O)N(CC(=O)N2Cc3ccc(F)cc3CC[C@H]2C2CC2)C1=O` (stereo partly drawn) [SYY-B074], for which the IC50 is less than 20 nM in test [3] and less than 10 nM in test [2]. Turning to `CNC(=O)Nc1ccc2c(c1)OCCC21OC(=O)N(CC(=O)N2Cc3ccc(F)cc3CC[C@H]2C2CC2)C1=O` (stereo partly drawn) [SYY-B077], the figures for the IC50 in test [3], in test [1] and in test [2] were less than 20 nM, less than 20 nM and less than 5 nM, respectively. For `CNC(=O)Nc1ccc2c(c1)CCC21NC(=O)N(CC(=O)N2Cc3cc(F)ccc3OC[C@H]2C(F)(F)F)C1=O` (stereo partly drawn) [SYY-B083], the IC50 in test [3] is less than 50 nM; in test [1], less than 100 nM; in test [2], less than 20 nM. On the same counts, the results for `Cn1cc(-c2ccc3c(c2)CCC32OC(=O)N(CC(=O)N3Cc4cc(F)ccc4OC[C@H]3C(F)(F)F)C2=O)cn1` (stereo partly drawn) [SYY-B084] are less than 20 nM, less than 100 nM and less than 20 nM. For `Cn1cc(-c2ccc3c(c2)CCC32NC(=O)N(CC(=O)N3Cc4cc(F)ccc4OC[C@H]3C(F)(F)F)C2=O)cn1` (stereo partly drawn) [SYY-B085], the IC50 was less than 10 nM in test [3], less than 50 nM in test [1] and less than 20 nM in test [2]. On the same counts, the results for `CNC(=O)Nc1ccc2c(c1)CCCC21OC(=O)N(CC(=O)N2Cc3cc(F)ccc3OC[C@H]2C2CC2)C1=O` (stereo partly drawn) [SYY-B086] are not above 20 nM, less than 20 nM and less than 10 nM. Turning to `CNC(=O)Nc1ccc2c(c1)CCCC21NC(=O)N(CC(=O)N2Cc3cc(F)ccc3OC[C@H]2C2CC2)C1=O` (stereo partly drawn) [SYY-B092], the IC50 in test [3] and in test [2] was less than 20 nM throughout. As for `Cn1cc(-c2ccc3c(c2)CCCC32NC(=O)N(CC(=O)N3Cc4cc(F)ccc4OC[C@H]3C3CC3)C2=O)cn1` (stereo partly drawn) [SYY-B093], the IC50 in test [3], in test [1] and in test [2] was less than 20 nM in each case. As to `CNC(=O)Nc1ccc2c(c1)OCCC21NC(=O)N(CC(=O)N2Cc3cc(F)ccc3OC[C@H]2C2CC2)C1=O` (stereo partly drawn) [SYY-B099], the IC50 is 121 nM in test [1] and less than 20 nM in test [2]. Regarding `Cn1cc(-c2ccc3c(c2)C(F)C[C@]32NC(=O)N(CC(=O)N3Cc4cc(F)ccc4OC[C@H]3C3CC3)C2=O)cn1` (stereo partly drawn) [SYY-B132-2], the IC50 in test [2] was less than 10 nM. In the case of `CNC(=O)Nc1ccc2c(c1)CC[C@]21OC(=O)N(CC(=O)N2Cc3cnccc3CC[C@H]2C2CC2)C1=O` [SYY-B136-1], in test [2], the IC50 was less than 10 nM. The same measure, in the same setting: with `CNC(=O)Nc1ccc2c(c1)CC[C@@]21OC(=O)N(CC(=O)N2Cc3cnccc3CC[C@H]2C2CC2)C1=O` [SYY-B136-2] the figure was less than 10 nM. Same read-out and setting: with `CNC(=O)Nc1ccc2c(c1)CC[C@@]21OC(=O)N(CC(=O)N2Cc3sccc3OC[C@H]2C(F)(F)F)C1=O` [SYY-B140-2] the figure was 7 nM. Turning to `CNC(=O)Nc1ccc2c(c1)CCC21NC(=O)N(CC(=O)N2Cc3sccc3OC[C@H]2C(F)(F)F)C1=O` (stereo partly drawn) [SYY-B142], the IC50 in test [2] is less than 50 nM. Same read-out and setting: to `Cn1cc(-c2ccc3c(c2)CCC32OC(=O)N(CC(=O)N3Cc4sccc4OC[C@H]3C(F)(F)F)C2=O)cn1` (stereo partly drawn) [SYY-B144] belongs less than 50 nM; to `CNC(=O)Nc1ccc2c(c1)OCC21NC(=O)N(CC(=O)N2Cc3cc(F)ccc3OC[C@H]2C2CC2)C1=O` (stereo partly drawn) [SYY-B156], less than 30 nM. `Cn1cc(-c2cc3c(cn2)C2(CC3)NC(=O)N(CC(=O)N3Cc4cc(F)ccc4OC[C@H]3C(F)(F)F)C2=O)cn1` (stereo partly drawn) [SYY-B161]: the half-inhibitory concentration (IC50) in test [2] is less than 100 nM. Same read-out and setting: to `Cn1cc(-c2cnc3c(c2)CCC32NC(=O)N(CC(=O)N3Cc4cc(F)ccc4OC[C@H]3C(F)(F)F)C2=O)cn1` (stereo partly drawn) [SYY-B163] belongs less than 20 nM. Still for that read-out and setting: to `Cn1cc(-c2ccc3c(n2)CCC32NC(=O)N(CC(=O)N3Cc4cc(F)ccc4OC[C@H]3C(F)(F)F)C2=O)cn1` (stereo partly drawn) [SYY-B165] belongs less than 20 nM; to `Cn1cc(-c2ccc3c(c2)C(O)C[C@]32NC(=O)N(CC(=O)N3Cc4cc(F)ccc4OC[C@H]3C3CC3)C2=O)cn1` (stereo partly drawn) [SYY-B170-2], less than 20 nM.

As for `CNC(=O)Nc1ccc2c(c1)CCC21NC(=O)N(CC(=O)N2Cc3cc(F)ccc3OC[C@H]2C2CC2)C1=O` (stereo partly drawn) [ZB-P-21], the concentration for half-maximal inhibition (IC50) in test [3] was less than 50 nM; in test [1], less than 100 nM; in test [2], less than 20 nM. `Cn1cc(-c2ccc3c(c2)CCC32NC(=O)N(CC(=O)N3Cc4cc(F)ccc4OC[C@H]3C3CC3)C2=O)cn1` (stereo partly drawn) [ZB-P-28]: the IC50 in test [3], in test [1] and in test [2] was less than 10 nM in each case.

With `Cn1cc(-c2ccc3c(c2)CCC32OC(=O)N(CC(=O)N3Cc4cc(F)ccc4OC[C@H]3C3CC3)C2=O)cn1` (stereo partly drawn) [ZB-P-29], the IC50 in test [3], in test [1] and in test [2] was less than 10 nM throughout. As to `CNC(=O)Nc1cc2c(cc1F)C1(CC2)NC(=O)N(CC(=O)N2Cc3ccc(F)cc3CC[C@H]2C2CC2)C1=O` (stereo partly drawn) [ZB-P-30], the IC50 in test [2] was less than 10 nM.

For the compound `CNC(=O)Nc1cc2c(cc1F)C1(CC2)OC(=O)N(CC(=O)N2Cc3ccc(F)cc3CC[C@H]2C2CC2)C1=O` (stereo partly drawn) [ZB-P-31], in test [2], the IC50 is less than 5 nM.
